# Assay results from ChEMBL document CHEMBL1143087, “Indirect oxidation of the antitumor agent procarbazine by tyrosinase--possible application in designing anti-melanoma prodrugs” (Bioorg Med Chem Lett, 2008).
# Activity calls are given as the source filed them. The calls are words filed in the database; no cut-off is given here.
# Molecular target: T1, Tyrosinase (Agaricus bisporus) (UniProt O42713)
# T1 sequence (whole entry): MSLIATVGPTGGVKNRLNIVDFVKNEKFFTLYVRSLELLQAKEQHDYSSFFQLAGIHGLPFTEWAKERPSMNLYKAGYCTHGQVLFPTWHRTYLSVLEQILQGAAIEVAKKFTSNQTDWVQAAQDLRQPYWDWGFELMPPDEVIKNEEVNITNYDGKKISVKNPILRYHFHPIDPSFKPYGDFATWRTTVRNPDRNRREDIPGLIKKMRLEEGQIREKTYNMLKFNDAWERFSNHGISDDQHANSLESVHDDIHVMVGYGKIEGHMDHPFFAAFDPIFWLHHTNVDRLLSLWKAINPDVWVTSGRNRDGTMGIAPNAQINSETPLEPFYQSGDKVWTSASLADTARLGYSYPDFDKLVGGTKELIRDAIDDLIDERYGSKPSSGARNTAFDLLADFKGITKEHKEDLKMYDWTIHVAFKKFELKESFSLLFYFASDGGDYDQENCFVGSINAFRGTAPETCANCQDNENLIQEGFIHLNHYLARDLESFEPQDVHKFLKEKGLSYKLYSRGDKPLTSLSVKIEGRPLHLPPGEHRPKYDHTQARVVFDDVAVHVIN
# Test: Increase in mushroom tyrosinase catalysed oxidation of 4-tert-butyl catechol assessed as oxygen consumption after 30 mins
smiles,measurement,value
CNNCc1ccc(C(=O)NC(C)C)cc1,Activity,Active
